The test deals with T1, mitochondrial complex I (NADH dehydrogenase) of mites (Psoroptes ovis, UniProt A0A075XDS2).
T1 sequence (A0A075XDS2 1-300): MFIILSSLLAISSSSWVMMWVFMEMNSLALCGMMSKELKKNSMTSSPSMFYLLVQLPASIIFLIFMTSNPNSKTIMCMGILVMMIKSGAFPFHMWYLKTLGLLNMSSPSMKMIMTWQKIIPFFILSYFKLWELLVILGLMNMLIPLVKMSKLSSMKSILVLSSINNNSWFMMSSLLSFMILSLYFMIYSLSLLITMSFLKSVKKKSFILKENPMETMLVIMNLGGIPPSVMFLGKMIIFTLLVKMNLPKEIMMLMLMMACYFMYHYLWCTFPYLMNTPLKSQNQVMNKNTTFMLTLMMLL
The test is described as follows: colorimetric complex I assay at […] nm, isolated mite mitochondria. It is filed as biochemical. Conditions: read-out: % inhibition at 20 ng/mL.

Data on one compound can be found in PMC8655235 (Journal of Advanced Research, 2020).

As to `C=CCc1ccc(O)c(OC)c1` [eugenol, 4-allyl-2-methoxyphenol], the inhibition at 0.02 µg/mL came to 92.6%.
